How the values were obtained:
Type in all cases: binding, rabbit
antiserum GC-5 = assay: Cross reactivity in chlorinated DBD radioimmunoassay, antiserum GC-5; settings: for maximum inhibition of binding of 125I-labeled hapten: GC-5 diluted such that 33% of the label was bound in the absence of competitors
Source text: (§1) Since TCDD itself has no chemically reactive functional groups, a derivative was synthesized that retained most of the structural features of TCDD but with the addition of a reactive site. This derivative was coupled to an immunogenic protein carrier, such as bovine serum albumin, rabbit serum albumin, etc., so that animals would respond to it by producing an antiserum containing antibodies. A second compound was synthesized, still structurally similar to TCDD so that it would bind to the antibodies, but capable of being labeled with ^125 I for detectability at the picogram level. An amount of antiserum capable of binding about 20 pg of ^125 I-labeled dioxin derivative (hapten) is preincubated with the detergent emulsion of the sample extract (possibly containing TCDD). Then the mixture is incubated with the ^125 I-labeled derivative long enough for equilibrium binding to occur and form the hapten-antibody complex. A second antibody, namely, goat antibodies against rabbit gamma-globulin (i.e., goat anti-rabbit γ-globulin) are then added to precipitate the antibody ^125 I-labeled dioxin complex, and the amount of ^125 I in the precipitate is determined. The extent to which preincubation with the test material inhibits or decreases the amount of ^125 I precipitated relative to the amount precipitated in the absence of test material is a measure of the amount of chlorodibenzodioxin in the test sample.
(§2) Radioimmunoassay of small molecules requires some means of separating free hapten from antibody-bound hapten. The procedure used in the present invention, chosen because of its compatibility with detergent-solubilized hapten, involved precipitating the antibody-hapten complex with a second antibody, namely, goat antibodies against rabbit gamma-globulin. In this assay chlorodibenzodioxin from the environmental sample completes with the ^125 I-labeled hapten for binding to the antibody. Thus, the decrease in precipitation of radioactivity is a measure of the amount of (unlabeled) hapten in the test sample.
(§3) The assay buffer (hereinafter referred to as "PBS") contained, per liter, 20 mmol of potassium phosphate, 140 mmol of NaCl, and 200 mg of sodium azide. The pH was adjusted to 7.3 with NaOH. Antiserum was diluted with PBS also containing 0.1% bovine gamma globulin and 0.02% rabbit gamma globulin (w/v). Each assay tube from procedure G above received 0.2 ml of PBS, after which the tubes were held in the sonicator for 40 minutes and then cooled to room temperature. Appropriately diluted antiserum or, as control, antiserum diluant was added (0.2 ml) and, after vortex-mixing, the tubes were incubated for 40 minutes at 37°. 14000 disintegrations per minute (hereafter referred to as "DPM") or 7000 counts per minute (hereinafter referred to as "CPM", which equals DPM×counting efficiency) of [^125 I]-iodovaleramide derivative of trichlorodibenzo-p-dioxin in PBS containing 1% "Cutscum" were then added to each tube (approximately 10 μl), vortex mixed, and the tubes incubated for 1 hour at 37° followed by an additional 65 hours of incubation at 4°. Each tube next received 1.24 units of goat anti-rabbit gamma globulin in 0.2 ml of PBS containing 0.05 mM ethylenediamine tetracetic acid (hereinafter referred to as "EDTA"), was vortex mixed, and incubated for 5 hours at 4°. The tubes were centrifuged at 500×g for 20 minutes at 4°. The supernates were poured off and the tubes allowed to drain into Whatman #3 MM paper for 10 minutes. The precipitate or pellets obtained were then radioassayed for ^125 I, with 10 minute count cycles.
(§4) Standard curves were prepared using sequential two-fold dilutions of TCDD or other test compounds in benzene and evaporating the solvent as described above. Both control (blank) and TCDD-spiked tissues were extracted and processed as described above to determine general interference and recoveries. All samples were run in triplicate. […]

antiserum F-12 = assay: Specificity / cross reactivity of the radioimmunoassay, antiserum F-12; settings: for Percentage Reactivity (inhibition of 125I binding relative to inhibition by 5 ng of 2,3,7,8-TCDD): "Cutscum"
Source text: as §1, §2, §3, §4

[1] = test system: anti-chlorinated dibenzodioxin serum (antisera GC-5 and F-12); assay: Double-antibody radioimmunoassay, both antisera (general cross reactivity, interference and sensitivity); settings: for cross reactivity of the three dichlorodibenzo-p-dioxins: 5 ng level; for activity v concentration curve slope: both antisera
Source text: as §1, §2, §3, §4

| SMILES | Cross Reactivity, Antiserum GC-5: 100 × (inhibition of 125I binding by 4 pmole of test compound)/(inhibition by 4 pmole of 2,3,7,8-TCDD) (antiserum GC-5) [%] | Cross Reactivity, Antiserum F-12: 100 × (inhibition of 125I binding by 4 pmole of test compound)/(inhibition by 4 pmole of 2,3,7,8-TCDD) (antiserum F-12) [%] | further results |
| --- | --- | --- | --- |
| Clc1cc2c(cc1Cl)Oc1c(Cl)c(Cl)c(Cl)c(Cl)c1O2 [1,2,3,4,7,8-Cl6 Dibenzo-p-Dioxin] | 99 | 9 |  |
| Clc1c(Cl)c(Cl)c2c(c1Cl)Oc1ccccc1O2 [1,2,3,4-Cl4 Dibenzo-p-Dioxin, 1,2,3,4-tetrachloro DBD] | 20 | < 1 | maximum inhibition of binding of 125I-labeled hapten (antiserum GC-5): up to 18% |
| Clc1cc2c(cc1Cl)Oc1c(Cl)c(Cl)cc(Cl)c1O2 [1,2,4,7,8-Cl5 Dibenzo-p-Dioxin] | 76 | 36 |  |
| Clc1cc(Cl)c2oc3cc(Cl)c(Cl)cc3c2c1 [2,3,6,8-Cl4 Dibenzofuran] | 6 | 40 |  |
| Brc1cc2oc3cc(Br)c(Br)cc3c2cc1Br [2,3,7,8-Br4 Dibenzofuran] |  | 46 |  |
| Clc1ccc2c(c1)Oc1cc(Cl)c(Cl)cc1O2 [2,3,7-Cl3 Dibenzo-p-Dioxin] | 73 | 77 |  |
| Clc1ccc2oc3cc(Cl)c(Cl)cc3c2c1 [2,3,8-Cl3 Dibenzofuran] | 2 |  |  |
| Clc1cc2c(cc1Cl)Oc1ccccc1O2 [2,3-Cl2 Dibenzo-p-Dioxin, 2,3-dichloro DBD] | 44 | 16 | cross reactivity of the three dichlorodibenzo-p-dioxins [1]: very similar in their cross reactivity; activity v concentration curve slope [1]: steepest sloop; binding by the antibodies in GC-5 (antiserum GC-5): only a portion bind 2,3-dichloro DBD; maximum inhibition of binding of 125I-labeled hapten (antiserum GC-5): 55% |
| Clc1cc(Cl)c(-c2cc(Cl)c(Cl)cc2Cl)cc1Cl [2,4,5,2',4',5'-HCBP] |  |  | Percentage Reactivity (inhibition of 125I binding relative to inhibition by 5 ng of 2,3,7,8-TCDD) (antiserum F-12; highest amount tested 100 ng): 0% |
| O=C(O)COc1cc(Cl)c(Cl)cc1Cl [2,4,5-T (Commercial), 2,4,5-trichlorophenoxyacetic acid] |  |  | Percentage Reactivity (inhibition of 125I binding relative to inhibition by 5 ng of 2,3,7,8-TCDD) (antiserum F-12; highest amount tested 10 μg): 37% |
| Clc1cccc(Cl)c1-c1c(Cl)cccc1Cl [2,6,2',6'-TCBP] |  |  | Percentage Reactivity (inhibition of 125I binding relative to inhibition by 5 ng of 2,3,7,8-TCDD) (antiserum F-12; highest amount tested 200 ng): 0% |
| Clc1ccc2c(c1)Oc1ccc(Cl)cc1O2 [2,7-Cl2 Dibenzo-p-Dioxin] | 56 | 20 | cross reactivity of the three dichlorodibenzo-p-dioxins [1]: very similar in their cross reactivity |
| O=C1OC2(c3cc(Cl)c(O)cc3Oc3cc(O)c(Cl)cc32)c2ccccc21 [2,7-Dichlorofluorescein] |  |  | Percentage Reactivity (inhibition of 125I binding relative to inhibition by 5 ng of 2,3,7,8-TCDD) (antiserum F-12; highest amount tested 200 ng): 0% |
| Clc1ccc2c(c1)Oc1cc(Cl)ccc1O2 [2,8-Cl2 Dibenzo-p-Dioxin] | 52 | 17 | cross reactivity of the three dichlorodibenzo-p-dioxins [1]: very similar in their cross reactivity; activity v concentration curve slope [1]: most shallow slope |
| Clc1ccc2oc3ccc(Cl)cc3c2c1 [2,8-Cl2 Dibenzofuran] | 12 |  |  |
| Clc1ccc(-c2ccc(Cl)c(Cl)c2)cc1Cl [3,4,3',4'-TCBP, 3,4,3'4'-tetrachlorobiphenyl] |  |  | Percentage Reactivity (inhibition of 125I binding relative to inhibition by 5 ng of 2,3,7,8-TCDD) (antiserum F-12; highest amount tested 5 ng): 6% |

| SMILES | Cross Reactivity, Antiserum GC-5: 100 × (inhibition of 125I binding by 4 pmole of test compound)/(inhibition by 4 pmole of 2,3,7,8-TCDD) (antiserum GC-5) [%] | Cross Reactivity, Antiserum F-12: 100 × (inhibition of 125I binding by 4 pmole of test compound)/(inhibition by 4 pmole of 2,3,7,8-TCDD) (antiserum F-12) [%] | further results |
| --- | --- | --- | --- |
| Clc1ccc(Oc2ccc(Cl)c(Cl)c2)cc1Cl [3,4,3',4'-TCBPE] |  |  | Percentage Reactivity (inhibition of 125I binding relative to inhibition by 5 ng of 2,3,7,8-TCDD) (antiserum F-12; highest amount tested 200 ng): 0.1% |
| Clc1cc(-c2cc(Cl)c(Cl)c(Cl)c2)cc(Cl)c1Cl [3,4,5,3',4',5'-HCBP] |  |  | Percentage Reactivity (inhibition of 125I binding relative to inhibition by 5 ng of 2,3,7,8-TCDD) (antiserum F-12; highest amount tested 100 ng): 0% |
| Clc1cc(Cl)cc(-c2cc(Cl)cc(Cl)c2)c1 [3,5,3',5'-TCBP] |  |  | Percentage Reactivity (inhibition of 125I binding relative to inhibition by 5 ng of 2,3,7,8-TCDD) (antiserum F-12; highest amount tested 100 ng): 0% |
| O=C1c2ccccc2-c2ccccc21 [9-Fluorenone] |  |  | Percentage Reactivity (inhibition of 125I binding relative to inhibition by 5 ng of 2,3,7,8-TCDD) (antiserum F-12; highest amount tested 100 ng): 0% |
| c1ccc2cc3ccccc3cc2c1 [Anthracene] |  |  | Percentage Reactivity (inhibition of 125I binding relative to inhibition by 5 ng of 2,3,7,8-TCDD) (antiserum F-12; highest amount tested 100 ng): 0% |
| CCCCCCCC/C=C\CCCCCCCC(=O)O[C@H]1CC[C@@]2(C)C(=CC[C@H]3[C@@H]4CC[C@H]([C@H](C)CCCC(C)C)[C@@]4(C)CC[C@@H]32)C1 [Cholesterol Oleate] |  |  | Percentage Reactivity (inhibition of 125I binding relative to inhibition by 5 ng of 2,3,7,8-TCDD) (antiserum F-12; highest amount tested 100 μg): 0% |
| ClC(Cl)=C(c1ccc(Cl)cc1)c1ccc(Cl)cc1 [DDE] |  |  | Percentage Reactivity (inhibition of 125I binding relative to inhibition by 5 ng of 2,3,7,8-TCDD) (antiserum F-12; highest amount tested 400 ng): 0% |
| CCCCC(CC)COC(=O)c1ccccc1C(=O)OCC(CC)CCCC (stereo not shown) [DEHP, di(2-ethylhexyl) phthalate] |  |  | Percentage Reactivity (inhibition of 125I binding relative to inhibition by 5 ng of 2,3,7,8-TCDD) (antiserum F-12; highest amount tested 100 μg): 0% |
| Clc1c(Cl)c(Cl)c2c(c1Cl)Oc1c(Cl)c(Cl)c(Cl)c(Cl)c1O2 [Octachloro Dibenzo-p-Dioxin] | 100 | 8 |  |
| Clc1c(Cl)c(Cl)c2c(oc3c(Cl)c(Cl)c(Cl)c(Cl)c32)c1Cl [Octachloro Dibenzofuran] | 14 | 8 |  |
| Oc1c(Cl)c(Cl)c(Cl)c(Cl)c1Cl [Pentachlorophenol] |  |  | Percentage Reactivity (inhibition of 125I binding relative to inhibition by 5 ng of 2,3,7,8-TCDD) (antiserum F-12; highest amount tested 10 μg): 0% |
| CCCCC(CC)COC(=O)c1c(Cl)c(Cl)c(Cl)c(Cl)c1C(=O)OCC(CC)CCCC (stereo not shown) [Tetrachloro DEHP] |  |  | Percentage Reactivity (inhibition of 125I binding relative to inhibition by 5 ng of 2,3,7,8-TCDD) (antiserum F-12; highest amount tested 200 ng): 0.1% |
| c1ccc2c(c1)Oc1ccccc1O2 [Unchlorinated Dibenzo-p-Dioxin, Unchlorinated dibenzo-p-dioxin] | 4 | < 1 | cross reactivity in words ([1]; either antiserum): very little cross relativity |
| c1ccc2c(c1)oc1ccccc12 [Unchlorinated Dibenzofuran] | 2.5 | < 1 |  |
| CC(=O)Oc1c(C)c(C)c2c(c1C)CCC(C)(CCCC(C)CCCC(C)CCCC(C)C)O2 (stereo not drawn) [α-Tocopherol Acetate] |  |  | Percentage Reactivity (inhibition of 125I binding relative to inhibition by 5 ng of 2,3,7,8-TCDD) (antiserum F-12; highest amount tested 200 ng): 0% |

Reference: patent publication US4238472A, “Radioimmunoassay for chlorinated dibenzo-p-dioxins” (priority 1978, dated 1980)
